In ChEMBL document CHEMBL3351528, “Targeting dopamine D3 and serotonin 5-HT1A and 5-HT2A receptors for developing effective antipsychotics: synthesis, biological characterization, and behavioral studies” (J Med Chem, 2014) one finds ED50, Activity and Time data, which are given here for three compounds.

Structures are written as SMILES. Activity calls are given as the source filed them. The rule behind the calls is not given here.

Data set [1] is filed under the species Mus musculus. The data set is described as follows: animal or person. Particulars: NMRI, sc.
Description: Antipsychotic-like activity in sc dosed NMRI mouse assessed as reduction in PCP-induced locomotor activity dosed 15 to 30 mins before administration of methamphetamine measured for 60 mins
In data set [2] the test system is Mus musculus. The data set is described as follows: Antipsychotic-like activity in NMRI mouse assessed as reduction in […]-induced locomotor activity at 1 mg/kg, sc dosed 15 to 30 mins before administration of methamphetamine measured for 60 mins. More on the design: dose 1 mg/kg. The data set is classed as functional, organism-based.
The species named for data set [3] is Mus musculus. Particulars: in vivo, sc, 0.5 h.
Description: Effect on spontaneous exploratory locomotor activity in sc dosed NMRI mouse measured for 30 mins with activity counts each 5 mins
Data set [4] has as its system Mus musculus. Put plainly: Toxicity in mouse assessed as induction of memory impairment by measuring […] to enter dark compartment at 10 mg/kg, po administered 30 mins before training by passive avoidance test. The following applies: in vivo, 0.5 h. The data set is classed as organism-based. Set-up: dose 10 mg/kg, route oral.
For data set [5], the species on record is Mus musculus. The data set is described as follows: animal or person. The following applies: NMRI, sc. The source holds these as a separate data set.
Description: Antipsychotic-like activity in sc dosed NMRI mouse assessed as reduction in methamphetamine-induced locomotor activity dosed 15 to 30 mins before administration of methamphetamine measured for 60 mins
The subject of data set [6] is Mus musculus. The data set is described as follows: Effect on spontaneous locomotor activity in mouse at 10 mg/kg, ip. More on the design: dose 10 mg/kg, route intraperitoneal. The data set is classed as ADME, organism-based. Particulars: in vivo.
Data set [7] concerns Mus musculus. Put plainly: Anxiolytic activity in mouse at 10 mg/kg, ip dosed 30 mins before test by marble burying method. Set-up: dose 10 mg/kg. The format is functional, organism-based.
Data set [8] has as its system Heart. Put plainly: Cardiotoxicity in Langendorff-perfused Sprague-Dawley rat heart assessed as intraventricular conduction time at 0.1 uM (reference value: 12.33 +/- 0.29 ms). The data set is classed as toxicity, tissue-based, Cardiac ventricle.
Data set [9] relates to Heart. The data set is described as follows: Cardiotoxicity in Langendorff-perfused Sprague-Dawley rat heart assessed as cycle length time at 0.01 uM (reference value: 203.61 +/- 9.17 ms). The format is toxicity, tissue-based.
Data set [10] deals with Heart. Put plainly: Cardiotoxicity in Langendorff-perfused Sprague-Dawley rat heart assessed as time duration of ventricular depolarization and repolarization at 0.01 uM (reference value: 71.61 +/- 4.21 ms). The data set is classed as toxicity, tissue-based.
Data set [11] concerns Heart. Put plainly: Cardiotoxicity in Langendorff-perfused Sprague-Dawley rat heart assessed as time duration of ventricular depolarization and repolarization at 1 uM (reference value: 71.61 +/- 4.21 ms). The data set is classed as toxicity, tissue-based.
In data set [12] the test system is Heart. The data set is described as follows: Cardiotoxicity in Langendorff-perfused Sprague-Dawley rat heart assessed as heart rate at 0.1 uM (reference value: 296.25 +/- 13.61 bpm). The format is toxicity, tissue-based.
Data set [13] concerns Heart. The data set is described as follows: Cardiotoxicity in Langendorff-perfused Sprague-Dawley rat heart assessed as cycle length time at 0.1 uM (reference value: 203.61 +/- 9.17 ms). The format is toxicity, tissue-based.
In data set [14] the test system is Heart. The data set is described as follows: Cardiotoxicity in Langendorff-perfused Sprague-Dawley rat heart assessed as cycle length time at 1 uM (reference value: 203.61 +/- 9.17 ms). The data set is classed as toxicity, tissue-based.
Data set [15] has as its system Heart. The data set is described as follows: Cardiotoxicity in Langendorff-perfused Sprague-Dawley rat heart assessed as corrected time duration of ventricular depolarization and repolarization at 0.1 uM (reference value: 159.41 +/- 11.21 ms). The format is toxicity, tissue-based.
Data set [16] has as its system Heart. Put plainly: Cardiotoxicity in Langendorff-perfused Sprague-Dawley rat heart assessed as heart rate at 10 uM (reference value: 296.25 +/- 13.61 bpm). The format is toxicity, tissue-based.
Data set [17] deals with Heart. Put plainly: Cardiotoxicity in Langendorff-perfused Sprague-Dawley rat heart assessed as corrected time duration of ventricular depolarization and repolarization at 1 uM (reference value: 159.41 +/- 11.21 ms). The format is toxicity, tissue-based.
Data set [18] has as its system Heart. The data set is described as follows: Cardiotoxicity in Langendorff-perfused Sprague-Dawley rat heart assessed as intraventricular conduction time at 10 uM (reference value: 12.33 +/- 0.29 ms). The data set is classed as toxicity, tissue-based, Cardiac ventricle.
The test system of data set [19] is Heart. Put plainly: Cardiotoxicity in Langendorff-perfused Sprague-Dawley rat heart assessed as atrioventricular conduction time at 0.1 uM (reference value: 41.98 +/- 2.55 ms). The data set is classed as toxicity, tissue-based.
Data set [20] has as its system Heart. Put plainly: Cardiotoxicity in Langendorff-perfused Sprague-Dawley rat heart assessed as time duration of ventricular depolarization and repolarization at 10 uM (reference value: 71.61 +/- 4.21 ms). The format is toxicity, tissue-based.
Data set [21] has as its system Heart. Put plainly: Cardiotoxicity in Langendorff-perfused Sprague-Dawley rat heart assessed as intraventricular conduction time at 0.01 uM (reference value: 12.33 +/- 0.29 ms). The format is toxicity, tissue-based, Cardiac ventricle.
The subject of data set [22] is Heart. Put plainly: Cardiotoxicity in Langendorff-perfused Sprague-Dawley rat heart assessed as heart rate at 0.01 uM (reference value: 296.25 +/- 13.61 bpm). The format is toxicity, tissue-based.
Data set [23] has as its system Heart. Put plainly: Cardiotoxicity in Langendorff-perfused Sprague-Dawley rat heart assessed as atrioventricular conduction time at 10 uM (reference value: 41.98 +/- 2.55 ms). The data set is classed as toxicity, tissue-based.
The test system of data set [24] is Heart. Put plainly: Cardiotoxicity in Langendorff-perfused Sprague-Dawley rat heart assessed as intraventricular conduction time at 1 uM (reference value: 12.33 +/- 0.29 ms). The format is toxicity, tissue-based, Cardiac ventricle.
Data set [25] concerns Heart. Put plainly: Cardiotoxicity in Langendorff-perfused Sprague-Dawley rat heart assessed as time duration of ventricular depolarization and repolarization at 0.1 uM (reference value: 71.61 +/- 4.21 ms). The format is toxicity, tissue-based.
Data set [26] relates to Heart. Put plainly: Cardiotoxicity in Langendorff-perfused Sprague-Dawley rat heart assessed as heart rate at 1 uM (reference value: 296.25 +/- 13.61 bpm). The data set is classed as toxicity, tissue-based.
Data set [27] has as its system Heart. Put plainly: Cardiotoxicity in Langendorff-perfused Sprague-Dawley rat heart assessed as atrioventricular conduction time at 1 uM (reference value: 41.98 +/- 2.55 ms). The data set is classed as toxicity, tissue-based.
The test system of data set [28] is Heart. Put plainly: Cardiotoxicity in Langendorff-perfused Sprague-Dawley rat heart assessed as atrioventricular conduction time at 0.01 uM (reference value: 41.98 +/- 2.55 ms). The format is toxicity, tissue-based.
The subject of data set [29] is Heart. Put plainly: Cardiotoxicity in Langendorff-perfused Sprague-Dawley rat heart assessed as corrected time duration of ventricular depolarization and repolarization at 0.01 uM (reference value: 159.41 +/- 11.21 ms). The data set is classed as toxicity, tissue-based.
In data set [30] the test system is Heart. Put plainly: Cardiotoxicity in Langendorff-perfused Sprague-Dawley rat heart assessed as cycle length time at 10 uM (reference value: 203.61 +/- 9.17 ms). The data set is classed as toxicity, tissue-based.
Data set [31] relates to Heart. The data set is described as follows: Cardiotoxicity in Langendorff-perfused Sprague-Dawley rat heart assessed as corrected time duration of ventricular depolarization and repolarization at 10 uM (reference value: 159.41 +/- 11.21 ms). The format is toxicity, tissue-based.

What is called ED50 is the midpoint of the dose-response relation. Read a high ED50 as weaker potency. On to `CN1CCN(C2=Nc3cc(Cl)ccc3Nc3ccccc32)CC1` [CLOZAPINE], for which the values for the ED50 in the data set filed under Mus musculus [1], in the data set filed under Mus musculus [3] and in the data set listed under Mus musculus [5] were 2.5 mg/kg, 2.4 mg/kg and 1.1 mg/kg, respectively. Moreover, in the data set on Mus musculus [2], the outcome was Active. In the data set on Mus musculus [4], the Activity entry is reported as “Toxic”.

Consider `CNC1=Nc2ccc(Cl)cc2C(c2ccccc2)=[N+]([O-])C1.Cl` [CHLORDIAZEPOXIDE HYDROCHLORIDE], for which the Activity entry in the data set with Mus musculus [6] was “Non-toxic”. In addition, in the data set with Mus musculus [7], the outcome was Active.

Regarding `Cl.O=C(NCCCCN1CCN(c2ccccc2)CC1)c1ccc2ncccc2c1`, the Time in the data set with Heart [8] is given as 12.7 ms; in the data set with Heart [9], 199.43 ms; in the data set with Heart [10], 70.61 ms; in the data set with Heart [11], 71.03 ms; with Heart [13], 194.96 ms; in the data set with Heart [14], 204.53 ms. In addition, the Time with Heart [15] came to 162.06 ms; in the data set on Heart [17], 158.14 ms; in the data set with Heart [18], 14.24 ms; in the data set with Heart [19], 42.32 ms; with Heart [20], 73.96 ms; with Heart [21], 13.17 ms. In addition, the Time in the data set on Heart [23] stood at 44.51 ms; in the data set with Heart [24] it was 13.38 ms; in the data set with Heart [25], 71.4 ms; in the data set with Heart [27], 41.51 ms; in the data set with Heart [28], 41.95 ms; in the data set with Heart [29], 158.61 ms. In addition, the Time with Heart [30] was 218.07 ms; in the data set with Heart [31], 159.76 ms. In addition, the Activity was 308.58 bpm with Heart [12], 280.67 bpm in the data set on Heart [16], 302.2 bpm in the data set with Heart [22] and 297.7 bpm in the data set with Heart [26].
